{
  "source": "patent US11420950B2",
  "about": "“Heterocyclicalkyl derivative compounds as selective histone deacetylase inhibitors and pharmaceutical compositions comprising the same” (Chong Kun Dang Pharmaceutical Corp., priority 2015, dated 2022)",
  "key": {"HDAC6 human recombinant": {"target": "T1, HDAC6 human recombinant (Homo sapiens, UniProt Q9UBN7)", "T1 construct": "purchased Calbiochem 382180", "T1 sequence (Q9UBN7 1-1215)": "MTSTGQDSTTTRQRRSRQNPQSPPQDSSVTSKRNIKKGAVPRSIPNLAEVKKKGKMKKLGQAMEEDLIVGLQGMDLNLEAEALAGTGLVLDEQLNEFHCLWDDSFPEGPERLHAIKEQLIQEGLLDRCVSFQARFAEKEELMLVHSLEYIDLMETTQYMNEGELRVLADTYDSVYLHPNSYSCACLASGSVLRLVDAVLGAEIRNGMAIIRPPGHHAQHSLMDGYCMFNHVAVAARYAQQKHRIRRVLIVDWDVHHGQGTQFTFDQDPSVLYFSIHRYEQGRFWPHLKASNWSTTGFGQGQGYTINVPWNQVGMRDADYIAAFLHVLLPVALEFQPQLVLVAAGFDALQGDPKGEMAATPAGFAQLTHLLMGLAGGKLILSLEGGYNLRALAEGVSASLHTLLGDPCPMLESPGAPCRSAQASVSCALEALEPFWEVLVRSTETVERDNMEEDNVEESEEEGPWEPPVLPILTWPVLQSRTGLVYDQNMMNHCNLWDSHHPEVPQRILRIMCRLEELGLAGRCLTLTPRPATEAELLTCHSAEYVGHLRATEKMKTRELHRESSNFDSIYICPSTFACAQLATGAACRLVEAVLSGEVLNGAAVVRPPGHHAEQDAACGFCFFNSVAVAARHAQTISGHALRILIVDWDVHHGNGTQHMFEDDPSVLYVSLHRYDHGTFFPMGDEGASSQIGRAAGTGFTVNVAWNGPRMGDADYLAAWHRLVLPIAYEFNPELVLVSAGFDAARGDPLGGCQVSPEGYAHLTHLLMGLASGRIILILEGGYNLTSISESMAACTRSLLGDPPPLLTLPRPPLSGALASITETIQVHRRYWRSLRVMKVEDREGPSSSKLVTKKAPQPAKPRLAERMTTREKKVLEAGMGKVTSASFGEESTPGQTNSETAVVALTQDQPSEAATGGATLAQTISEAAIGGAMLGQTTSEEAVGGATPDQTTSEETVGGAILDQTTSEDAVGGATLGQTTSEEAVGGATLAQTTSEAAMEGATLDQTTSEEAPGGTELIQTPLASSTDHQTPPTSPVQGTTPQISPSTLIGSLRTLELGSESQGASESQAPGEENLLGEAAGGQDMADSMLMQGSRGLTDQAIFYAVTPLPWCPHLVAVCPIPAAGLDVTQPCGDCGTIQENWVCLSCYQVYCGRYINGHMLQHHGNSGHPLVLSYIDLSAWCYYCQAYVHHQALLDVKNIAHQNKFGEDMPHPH", "experiment": "HDAC6 enzyme inhibition, fluorimetric assay", "type": "biochemical", "description": "(§1) Using a HDAC1 fluorimetric drug discovery assay kit (Enzolifesciences: BML-AK511) and a HDAC6 human recombinant (Calbiochem: 382180), the HDAC enzyme inhibitory abilities of test compounds were measured. It was treated with 100, 1000 and 10000 nM concentrations for HDAC1 assay, and 0.1, 1, 10, 100 and 1000 nM concentrations for HDAC6 assay. It was allowed to react at 37° C. for 60 minutes, and then was treated with a developer and allowed to react at 37° C. for 30 minutes, after which the fluorescence intensity (Ex 390 nm; Em 460 nm) was measured using FlexStatin3 (Molecular Device)."}, "[1]": {"test_system": "adjuvant-induced arthritis models", "experiment": "Adjuvant-induced arthritis model, clinical score", "type": "in vivo", "settings": "Lewis rat, vehicle 9-11", "description": "[…] of complete Freund's adjuvant (Chondrex) was injected intradermally into the tail of each Lewis rat to induce animal models. From one day before induction, the rats were divided into groups based on body weight, and the test compound was administered orally to the rats at various doses once a day, followed by evaluation.\nClinical score and body weight were measured twice a week from the day of first administration of the test compound. The clinical score was recorded as 0-4 points, and the total clinical score was evaluated after observing the foot of each rat (0: normal; and 16: the most severe edema).\nThe medicinal effect of the test compound in the arthritis models was evaluated based on the degree of joint edema, and a higher clinical score indicates a more severe degree of edema."}, "HDAC1": {"target": "T2, HDAC1 (Homo sapiens, UniProt Q13547)", "T2 construct": "purchased Enzolifesciences BML-AK511", "T2 sequence (Q13547 whole entry)": "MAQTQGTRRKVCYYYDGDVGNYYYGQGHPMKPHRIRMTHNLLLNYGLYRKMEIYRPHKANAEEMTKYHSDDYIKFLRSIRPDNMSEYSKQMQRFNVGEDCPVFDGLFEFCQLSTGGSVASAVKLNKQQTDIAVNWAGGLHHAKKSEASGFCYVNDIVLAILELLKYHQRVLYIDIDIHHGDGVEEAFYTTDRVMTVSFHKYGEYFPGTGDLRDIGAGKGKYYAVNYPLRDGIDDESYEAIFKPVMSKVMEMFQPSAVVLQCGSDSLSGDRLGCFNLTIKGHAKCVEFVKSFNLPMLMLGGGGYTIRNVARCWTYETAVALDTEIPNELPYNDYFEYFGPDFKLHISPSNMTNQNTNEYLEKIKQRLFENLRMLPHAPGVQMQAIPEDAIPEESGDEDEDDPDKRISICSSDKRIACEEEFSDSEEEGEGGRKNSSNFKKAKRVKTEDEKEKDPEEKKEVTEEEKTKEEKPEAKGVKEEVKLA", "experiment": "HDAC1 enzyme inhibition, HDAC1 fluorimetric drug discovery assay kit", "type": "biochemical", "settings": "100-10000 nM tested, 37° C. 60 minutes, fluorescence; read-out: HDAC1 (μM), ability to inhibit the activity of HDAC enzyme", "description": "as §1"}},
  "data": [
    {"smiles": "O=C(CCCCCCNC(=O)N1CCN(C(c2ccccc2)c2ccccc2)CC1)NO", "note": "[Compound 1102, 4-benzhydryl-N-(7-(hydroxyamino)-7-oxoheptyl)piperazine-1-carboxamide]", "values": [
      {"measurement": "IC50", "setting": "HDAC6 human recombinant; 0.1-1000 nM tested, 37° C. 60 minutes, fluorescence, read-out: HDAC6 (μM), ability to inhibit the activity of HDAC enzyme", "value": 0.004, "unit": "µM"},
      {"measurement": "selectivity for HDAC1/6 enzymes (HDAC1/HDAC6)", "setting": "HDAC6 human recombinant; ratio of HDAC1 to HDAC6 values", "value": 960, "unit": "fold"},
      {"measurement": "clinical score (joint edema, 0: normal; 16: the most severe edema)", "setting": "[1]; 1 mg/kg orally once a day", "value": "6-8"},
      {"measurement": "clinical score (joint edema, 0: normal; 16: the most severe edema)", "setting": "[1]; 10 mg/kg orally once a day", "value": "4-6"},
      {"measurement": "clinical score (joint edema, 0: normal; 16: the most severe edema)", "setting": "[1]; 50 mg/kg orally once a day", "value": "1-3"},
      {"measurement": "IC50", "setting": "HDAC1", "value": 3.84, "unit": "µM"}
    ]}
  ]
}
